According to patent publication US9617244B2, “Antibacterial quinoline derivatives” (JANSSEN PHARMACEUTICA NV, priority 2012, dated 2017):
In brackets after ≈: the same amount, converted by molar mass.

Tests used:
[1] = system: Staphylococcus aureus (ATCC29213); assay: In-vitro anti-bacterial activity, microtitre plate assay, IC90 determination (non-mycobacterial strains); assay type: cell-based; conditions: 90% inhibitory concentration for bacterial growth, resazurin fluorescence; for IC90 STA B29213: 24 hours
Protocol: D.2. In-Vitro Method for Testing Compounds for Anti-Bacterial Activity Against Various Non-Mycobacterial Strains
Preparation of Bacterial Suspensions for Susceptibility Testing:
The bacteria used in this study were grown overnight in flasks containing 100 ml Mueller-Hinton Broth (Becton Dickinson—cat. no. 275730) in sterile de-ionized water, with shaking, at 37° C. Stocks (0.5 ml/tube) were stored at −70° C. until use. Bacteria titrations were performed in microtiter plates to detect the TCID50, in which TCID50 represents the dilution that gives rise to bacterial growth in 50% of inoculated cultures. In general, an inoculum level of approximately 100 TCID50 was used for susceptibility testing.
Anti Bacterial Susceptibility Testing: IC90 Determination
Flat-bottom, sterile 96-well plastic microtiter plates were filled with 180 μl of sterile deionized water, supplemented with 0.25% BSA. Subsequently, stock solutions (7.8× final test concentration) of compounds were added in 45 μl volumes in column 2 Serial five-fold dilutions (45 μl in 180 μl) were made directly in the microtiter plates from column 2 to reach column 11. Untreated control samples with (column 1) and without (column 12) inoculum were included in each microtiter plate. Depending on the bacteria type, approximately 10 to 60 CFU per well of bacteria inoculum (100 TCID50), in a volume of 100 μl in 2.8× Mueller-Hinton broth medium, was added to the rows A to H, except column 12. The same volume of broth medium without inoculum was added to column 12 in row A to H. The cultures were incubated at 37° C. for 24 hours under a normal atmosphere (incubator with open air valve and continuous ventilation). At the end of incubation, one day after inoculation, the bacterial growth was quantitated fluorometrically. Therefore resazurin (0.6 mg/ml) was added in a volume of 20 μl to all wells 3 hours after inoculation, and the plates were re-incubated overnight. A change in colour from blue to pink indicated the growth of bacteria. The fluorescence was read in a computer-controlled fluorometer (Cytofluor Biosearch) at an excitation wavelength of 530 nm and an emission wavelength of 590 nm. The % growth inhibition achieved by the compounds was calculated according to standard methods. The IC90 (expressed in μg/ml) was defined as the 90% inhibitory concentration for bacterial growth.

[2] = system: Mycobacterium smegmatis (ATCC607); assay: In-vitro anti-bacterial activity against strain M. Smegmatis ATCC607; assay type: cell-based; conditions: 90% inhibitory concentration for bacterial growth, Alamar Blue fluorescence; for IC90 MSM 607: 48 hours; for IC90: Mycolicibacterium smegmatis, ATCC607, 48 h, read-out: IC90 MSM 607
Protocol: D.1. In-Vitro Method for Testing Compounds for Anti-Bacterial Activity Against Strain M. Smegmatis ATCC607
Flat-bottom, sterile 96-well plastic microtiter plates were filled with 180 μl of sterile deionized water, supplemented with 0.25% BSA. Subsequently, stock solutions (7.8× final test concentration) of compounds were added in 45 μl volumes to a series of duplicate wells in column 2 so as to allow evaluation of their effects on bacterial growth. Serial five-fold dilutions (45 μl in 180 μl) were made directly in the microtiter plates from column 2 to 11 using a customised robot system (Zymark Corp., Hopkinton, Mass.). Pipette tips were changed after every 3 dilutions to minimize pipetting errors with high hydrophobic compounds. Untreated control samples with (column 1) and without (column 12) inoculum were included in each microtiter plate. Approximately 250 CFU per well of bacteria inoculum, in a volume of 100 μl in 2.8× Mueller-Hinton broth medium, was added to the rows A to H, except column 12. The same volume of broth medium without inoculum was added to column 12 in row A to H. The cultures were incubated at 37° C. for 48 hours in a humidified 5% CO2 atmosphere (incubator with open air valve and continuous ventilation). At the end of incubation, two days after inoculation, the bacterial growth was quantitated fluorometrically. Therefore Alamar Blue (10×) was added to all wells in a volume of 20 μl and plates were incubated for another 2 hours at […]
The fluorescence was read in a computer-controlled fluorometer (Cytofluor, Biosearch) at an excitation wavelength of 530 nm and an emission wavelength of 590 nm (gain 30). The percentage growth inhibition achieved by the compounds was calculated according to standard methods and expressed as IC90 (μg/ml) which defines the 90% inhibitory concentration for bacterial growth.

Compound | IC90 STA B29213 [1] | IC90 MSM 607 [2] | IC90 ([1]; Staphylococcus aureus, ATCC29213, 24 h, read-out: IC90 STA B29213) | IC90 [2]
CSc1ccc2[nH]c(=O)c(C(c3cccc(Cl)c3)C3(O)CCNC(c4ccc(F)cc4C)C3)cc2c1 (stereo not drawn) [Compound 177] | 1.76 mg/L (≈ 3.36 µM) | 2.78 mg/L (≈ 5.31 µM) |  | 
Cc1cc(F)ccc1C1CC(O)(C(c2ccccc2)c2cc3cc(Br)ccc3[nH]c2=O)CCN1 (stereo not drawn) [Compound 43] | 3.48 mg/L (≈ 6.67 µM) | 3.48 mg/L (≈ 6.67 µM) |  | 
COc1nc2ccc(Cl)cc2cc1C(c1ccc(Cl)cc1)C1(O)CCNC(Cc2ccc(F)cc2)C1 (stereo not drawn) [Compound 347] | 4.27 mg/L (≈ 8.13 µM) | 1.70 mg/L (≈ 3.24 µM) |  | 
COc1nc2ccc(Cl)cc2cc1C(c1ccc(Cl)cc1)C1(O)CCNC(c2ccc3ccccc3c2)C1 (stereo not drawn) [Compound 432] | 7.41 mg/L (≈ 13.6 µM) | 5.24 mg/L (≈ 9.64 µM) |  | 
CS(=O)(=O)c1ccc2[nH]c(=O)c(C(c3ccc(Cl)cc3)C3(O)CCNC(Cc4ccc(F)c(F)c4)C3)cc2c1 (stereo not drawn) [Compound 215] | 13.66 mg/L (≈ 23.8 µM) | 17.19 mg/L (≈ 30 µM) |  | 
COc1nc2ccc(Br)cc2cc1C(c1cccnc1)C1(O)CCNC(Cc2ccccc2)C1 (stereo not drawn) [Compound 428] | 15.06 mg/L (≈ 29 µM) | 10.66 mg/L (≈ 20.6 µM) |  | 
CC1CC(O)(C(c2ccc(Cl)cc2)c2cc3cc(Br)ccc3[nH]c2=O)CCN1 (stereo not drawn) [Compound 130] | 11.60 mg/L (≈ 25.1 µM) | 5.81 mg/L (≈ 12.6 µM) |  | 
CCCN(C)CC1CC(O)(C(c2ccc(Cl)cc2)c2cc3cc(Cl)ccc3nc2OC)CCN1 (stereo not drawn) [Compound 64] | 7.93 mg/L (≈ 15.8 µM) | 3.98 mg/L (≈ 7.92 µM) |  | 
O=c1[nH]c2ccc(Br)cc2cc1C(c1ccc(Cl)cc1)C1(O)CCNC(Cc2ccc(F)cc2F)C1 (stereo not drawn) [Compound 316] | 3.84 mg/L (≈ 6.69 µM) | 3.05 mg/L (≈ 5.31 µM) |  | 
COc1nc2ccc(SC)cc2cc1C(c1ccc(Cl)cc1)C1(O)CCNCC1Cc1cccc(F)c1 (stereo not drawn) [Compound 284] | 4.25 mg/L (≈ 7.91 µM) | 3.38 mg/L (≈ 6.29 µM) |  | 
Cc1cc(F)ccc1C1CC(O)(C(c2ccccc2)c2cc3cc(Br)ccc3[nH]c2=O)CCN1 (stereo not drawn) [Compound 279] | 7.00 mg/L (≈ 13.4 µM) | 7.00 mg/L (≈ 13.4 µM) |  | 
COc1nc2ccc(F)cc2cc1C(c1ccc(Cl)cc1)C1(O)CCNC(c2ccc(F)cc2C)C1 (stereo not drawn) [Compound 332] | 4.38 mg/L (≈ 8.61 µM) | 2.20 mg/L (≈ 4.32 µM) |  | 
O=c1[nH]c2ccc(Br)cc2cc1C(c1ccc(Cl)cc1)C1(O)CCNC(Cc2ccc(F)c(F)c2)C1 (stereo not drawn) [Compound 134] | 3.07 mg/L (≈ 5.35 µM) | 3.86 mg/L (≈ 6.73 µM) |  | 
Cc1cc(F)ccc1C1CC(O)(C(c2ccc(Cl)cc2)c2cc3cc(S(C)(=O)=O)ccc3[nH]c2=O)CCN1 (stereo not drawn) [Compound 225] | >14.77 mg/L | >14.77 mg/L |  | 
Cc1cc(F)ccc1C1CC(O)(C(c2ccc(Cl)cc2)c2cc3cc(S(C)(=O)=O)ccc3[nH]c2=O)CCN1 (stereo not drawn) [Compound 220] | >14.80 mg/L | >14.80 mg/L |  | 
CSc1ccc2[nH]c(=O)c(C(c3ccc(Cl)cc3)C3(O)CCNC(c4ccccc4)C3)cc2c1 (stereo not drawn) [Compound 230] | 1.67 mg/L (≈ 3.4 µM) | 1.18 mg/L (≈ 2.4 µM) |  | 
CS(=O)(=O)c1ccc2[nH]c(=O)c(C(c3ccc(Cl)cc3)C3(O)CCNC(Cc4ccc(F)c(F)c4)C3)cc2c1 (stereo not drawn) [Compound 214] | >17.57 mg/L | >17.57 mg/L |  | 

Compound | IC90 STA B29213 [1] | IC90 MSM 607 [2] | IC90 ([1]; Staphylococcus aureus, ATCC29213, 24 h, read-out: IC90 STA B29213) | IC90 [2]
O=c1[nH]c2ccc(Cl)cc2cc1C(c1ccc(Cl)cc1)C1(O)CCNC(Cc2ccccc2)C1 (stereo not drawn) [Compound 241] | 4.72 mg/L (≈ 9.57 µM) | 3.34 mg/L (≈ 6.77 µM) |  | 
CSc1ccc2[nH]c(=O)c(C(c3cccc(Cl)c3)C3(O)CCNC(Cc4ccc(F)cc4F)C3)cc2c1 (stereo not drawn) [Compound 310] | 3.62 mg/L (≈ 6.69 µM) | 3.62 mg/L (≈ 6.69 µM) |  | 
COc1nc2ccc(S(C)(=O)=O)cc2cc1C(c1ccc(Cl)cc1)C1(O)CCNC(Cc2ccc(F)cc2F)C1 (stereo not drawn) [Compound 305] | 18.76 mg/L (≈ 32 µM) | 18.76 mg/L (≈ 32 µM) |  | 
COc1nc2ccc(Br)cc2cc1C(n1cccn1)C1(O)CCNC(Cc2ccccc2)C1 (stereo not drawn) [Compound 429] |  |  | 7.72 mg/L (≈ 15.2 µM) | 3.87 mg/L (≈ 7.63 µM)
CS(=O)(=O)c1ccc2[nH]c(=O)c(C(c3ccc(Cl)cc3)C3(O)CCN[C@@H](Cc4ccc(F)c(F)c4)C3)cc2c1 (stereo in doubt) [Compound 206] | >15.08 mg/L | >15.08 mg/L |  | 
CS(=O)(=O)c1ccc2[nH]c(=O)c(C(c3cccc(Cl)c3)C3(O)CCNC(Cc4ccc(F)cc4F)C3)cc2c1 (stereo not drawn) [Compound 307] | >15.12 mg/L | >15.12 mg/L |  | 
Cc1cc(F)ccc1C1CC(O)(C(c2cccc(Cl)c2)c2cc3cc(Br)ccc3[nH]c2=O)CCN1 (stereo not drawn) [Compound 135] | 1.84 mg/L (≈ 3.31 µM) | 1.84 mg/L (≈ 3.31 µM) |  | 
O=c1[nH]c2ccc(Cl)cc2cc1C(c1ccc(Cl)cc1)C1(O)CCNCC1F (stereo not drawn) [Compound 458] | 11.50 mg/L (≈ 27.3 µM) | 11.50 mg/L (≈ 27.3 µM) |  | 
COc1nc2ccc(SC)cc2cc1C(c1cccc(Cl)c1)C1(O)CCNC(c2ccc(F)cc2C)C1 (stereo not drawn) [Compound 165] | 5.10 mg/L (≈ 9.5 µM) | 3.61 mg/L (≈ 6.72 µM) |  | 
COc1nc2ccc(F)cc2cc1C(c1ccc(Cl)cc1)C1(O)CCNC(c2ccc(F)cc2C)C1 (stereo not drawn) [Compound 330] | 2.08 mg/L (≈ 4.09 µM) | 1.04 mg/L (≈ 2.04 µM) |  | 
CSc1ccc2[nH]c(=O)c(C(c3ccc(Cl)cc3)C3(O)CCNC(CC4CCCCC4)C3)cc2c1 (stereo not drawn) [Compound 295] | 3.43 mg/L (≈ 6.71 µM) | 3.43 mg/L (≈ 6.71 µM) |  | 
Cc1cc(F)ccc1C1CC(O)(C(c2ccccc2)c2cc3cc(S(C)(=O)=O)ccc3[nH]c2=O)CCN1 (stereo not drawn) [Compound 263] | >13.89 mg/L | >13.89 mg/L |  | 
COc1nc2ccc(Cl)cc2cc1C(c1ccc(Cl)cc1)C1(O)CCNC(Cc2cccnc2)C1 (stereo not drawn) [Compound 468] | 3.21 mg/L (≈ 6.31 µM) | 3.21 mg/L (≈ 6.31 µM) |  | 
CS(=O)(=O)c1ccc2[nH]c(=O)c(C(c3ccc(Cl)cc3)C3(O)CCNC(Cc4ccc(F)cc4)C3)cc2c1 (stereo not drawn) [Compound 57] | 3.50 mg/L (≈ 6.31 µM) | 3.50 mg/L (≈ 6.31 µM) |  | 
COc1nc2ccc(Br)cc2cc1C(c1ccc(Cl)cc1)C1(O)CCN(Cc2ccccc2)CC1C (stereo not drawn) [Compound 25] | >19.87 mg/L |  |  | > 19.9 mg/L
COc1nc2ccc(F)cc2cc1C(c1ccc(Cl)cc1)C1(O)CCNC(Cc2ccccc2)C1 (stereo not drawn) [Compound 55] | 6.19 mg/L (≈ 12.6 µM) | 3.90 mg/L (≈ 7.94 µM) |  | 
